Assay results reported in patent EP0302379A1, “Naphthothiazepine derivatives and a process for preparing the same” (TANABE SEIYAKU CO., LTD., priority 1987, dated 1989).
Structures can show the parent of a compound that is named as a salt.

Test system: spontaneously hypotensive rats (SHR)
Assay: Hypotensive activity: systolic blood pressure by tail plethysmographic technique after oral dosing
Type: in vivo
Settings: 30 mg/kg orally, SHR fasted overnight
Procedure: A test compound dissolved or suspended in water was administered orally at a dose of 30 mg/kg to spontaneously […] (SHR) fasted overnight, and the systolic blood pressure of the rats was measured at intervals by the tail plethysmographic technique (The Journal of Laboratory and Clinical Medicine, Vol. 78(1971), page 957). The hypotensive activity of the test compound was estimated in terms of "Decrease in Blood pressure (Δ mm Hg)" which was calculated by the following formula: Decrease in Blood pressure (Δ mm Hg) = [formula]

COc1ccc([C@@H]2Sc3ccc4ccccc4c3N(CCN(C)C)C(=O)[C@@H]2OC(C)=O)cc1 (racemic) [Test compound, (±)-cis-2-(4-methoxyphenyl)-3-acetoxy-5-[2-dimethylamino)ethyl]-2,3-dihydro-naphtho[2,1-b][1,5]thiazepin-4(5H)-one fumarate]
Decrease in Blood pressure (Time after dosing 1 hr): 58.3±8.8 Δmm Hg
Decrease in Blood pressure (Time after dosing 2 hrs): 51.3±7.7 Δmm Hg
Decrease in Blood pressure (Time after dosing 5 hrs): 34.0±6.2 Δmm Hg
